Test results as given in patent US5639899A, “Prostaglandin E1 analogues” (Taisho Pharmaceutical Co., Ltd., priority 1991, dated 1997).

Columns and labels:
[1] = test system: Guinea-pig Blood Platelet; assay: Guinea-pig Blood Platelet Aggregation Inhibition Test (oral administration, aggregation measured in PRP); format: in vivo, guinea-pig (male Hartley strain); settings: 50 μg/kg
Description: The effects of the present invention are illustrated in more detail by the following experiments. Experiment 1 [Guinea-pig Blood Platelet Aggregation Inhibition Test]
194, page 927 (1962)]. […] [formula]
In the table are recited data of the compound obtained by converting the triple bond between the 13- and 14-positions of Compound 9 of Example 23 into a double bond as a comparative compound (limaprost) [Tsuboi et al, Arch. Intern. Pharmacodyn. Ther., vol. 247, page 89 (1980)].

Rabbit Blood Platelet = Rabbit Blood Platelet Aggregation Inhibition Test; format: cell-based, rabbit (New Zealand white strain); settings: Oryctolagus cuniculus, rabbit PRP, ADP 5 μM, 37° C., mean value
Procedure: Groups of four New Zealand white strain rabbits, each weighing 2.5 to 4.0 kg, were used for the test. […] The collected blood was Centrifuged at 1100 rpm for 15 minutes to give platelet rich plasma (PRP) as a supernatant. […] 194, page 927 (1962)]. That is, 1 μl of the test drug dissolved in ethanol at the desired concentration was added to 275 μl of PRP, and the mixture was stirred at 1000 rpm at 37° C.
The aggregation inhibition rate was calculated on the basis of the aggregation obtained by using ethanol in place of the test drug solution, and the aggregation inhibition activity was expressed as IC50 value which was determined from the dose response curve.
Results are shown in Table 2 wherein the compound number is as defined in the examples described hereinafter, and the IC50 value is expressed as the mean value.

[2] = Blood Pressure Lowering Test in Anesthetized Dogs; format: in vivo, dog (male mongrel); settings: intravenous
Procedure: Male mongrel dogs, weighing 13 kg, were anesthetized by intravenous administration of 30 mg/kg of sodium pentobarbital. A cannula inserted into the left femoral […] was attached to a blood pressure transducer to measure blood pressure. A solution of the test drug in ethanol, if necessary, was diluted with ethanol. 10 μl of the solution was administered through the vein via a cannula inserted into the left anterior limb vein. The blood pressure lowering rate by the test drug was calculated by the following formula: [formula]

CCCC[C@@H](C)C[C@H](O)C#C[C@H]1[C@H](O)CC(=O)[C@@H]1CCCC/C=C/C(=O)OC [Compound 5, (2E,17R)-17,20-Dimethyl-2,3,13,14-tetradehydro-PGE1 Methyl Ester]
Aggregation Inhibition Rate, ADP Aggregation, 2 hours after administration ([1]; ADP 3 μM): 25.9% | Aggregation Inhibition Rate, Collagen Aggregation, 2 hours after administration ([1]; collagen 3 μg/ml): 1.6% | IC50 (Rabbit Blood Platelet): 1.4 nM

CCCC[C@H](C)C[C@H](O)C#C[C@H]1[C@H](O)CC(=O)[C@@H]1CCCCCC/C=C/C(=O)O [Compound 15, (2E,17S)-2a,2b-Dihomo-17,20-dimethyl-2,2a,13,14-tetradehydro-PGE1]
IC50 (Rabbit Blood Platelet): 5.1 nM

COC(=O)/C=C/CCCC[C@H]1C(=O)C[C@@H](O)[C@@H]1C#C[C@@H](O)C1CCCCC1 [Compound 3, (2E)-16,17,18,19,20-Pentanor-15-cyclohexyl-2,3,13,14-tetradehydro-PGE1Methyl Ester]
IC50 (Rabbit Blood Platelet): 6 nM | blood pressure lowering rate ([2]; 0.03 μg/kg): 11.5%

CCCCC[C@H](O)/C=C/[C@H]1[C@H](O)CC(=O)[C@@H]1CCCCCCC(=O)O [PGE1]
IC50 (Rabbit Blood Platelet): 26 nM | blood pressure lowering rate ([2]; 1 μg/kg): 13.9% | blood pressure lowering rate ([2]; 3 μg/kg): 23.7%

CCCC[C@H](C)C[C@H](O)/C=C/[C@H]1[C@H](O)CC(=O)[C@@H]1CCCC/C=C/C(=O)O [limaprost, reference compound]
Aggregation Inhibition Rate, ADP Aggregation, 2 hours after administration ([1]; ADP 3 μM): 3.4% | Aggregation Inhibition Rate, Collagen Aggregation, 2 hours after administration ([1]; collagen 3 μg/ml): 16.2% | IC50 (Rabbit Blood Platelet): 6.3 nM | blood pressure lowering rate ([2]; 0.5 μg/kg): 13.9% | blood pressure lowering rate ([2]; 1 μg/kg): 23.8%

COC(=O)C#CCCCC[C@H]1C(=O)C[C@@H](O)[C@@H]1C#C[C@@H](O)CC(C)CCC=C(C)C (stereo partly drawn) [Compound 7, (17RS)-20-Nor-17-methyl-19-(2'-methylprop-1'-enyl)-2,2,3,3,13,14-hexadehydro-PGE1 Methyl Ester]
IC50 (Rabbit Blood Platelet): 1.1 nM

CCCC[C@@H](C)C[C@H](O)C#C[C@H]1[C@H](O)CC(=O)[C@@H]1CCCC/C=C/C(=O)O [Compound 14, (2E,17R)-17,20-Dimethyl-2,3,13,14-tetradehydro-PGE1]
Aggregation Inhibition Rate, ADP Aggregation, 2 hours after administration ([1]; ADP 3 μM): 52.5% | Aggregation Inhibition Rate, Collagen Aggregation, 2 hours after administration ([1]; collagen 3 μg/ml): 100.0% | Aggregation Inhibition Rate, ADP Aggregation, 8 hours after administration ([1]; 8 hours after administration, ADP 3 μM): 31.8% | Aggregation Inhibition Rate, Collagen Aggregation, 8 hours after administration ([1]; 8 hours after administration, collagen 3 μg/ml): 61.0% | IC50 (Rabbit Blood Platelet): 1.3 nM

CCCCCC(C)C[C@H](O)C#C[C@H]1[C@H](O)CC(=O)[C@@H]1CCCC/C=C/C(=O)O (stereo partly drawn) [Compound 13, (2E,17RS)-17-Methyl-20-ethyl-2,3,13,14-tetradehydro-PGE1]
IC50 (Rabbit Blood Platelet): 2.7 nM

CCCCOC(=O)C#CCCCC[C@H]1C(=O)C[C@@H](O)[C@@H]1C#C[C@@H](O)C[C@@H](C)CCCC [Compound 6, (17S)-17,20-Dimethyl-2,2,3,3,13,14-hexadehydro-PGE1 n-butyl Ester]
Aggregation Inhibition Rate, ADP Aggregation, 2 hours after administration ([1]; ADP 3 μM): 22.8% | Aggregation Inhibition Rate, Collagen Aggregation, 2 hours after administration ([1]; collagen 3 μg/ml): 58.2%

CCC#CCC(C)[C@H](O)C#C[C@H]1[C@H](O)CC(=O)[C@@H]1CCCC/C=C/C(=O)O (stereo partly drawn) [Compound 10, (2E,16RS)-16,20-Dimethyl-2,3,13,14,18,18,19,19-octadehydro-PGE1]
IC50 (Rabbit Blood Platelet): 1.1 nM

CCCC[C@H](C)C[C@H](O)C#C[C@H]1[C@H](O)CC(=O)[C@@H]1CCCC/C=C/C(=O)O [Compound 9, (2E,17S)-17,20-Dimethyl-2,3,13,14-tetradehydro-PGE1]
Aggregation Inhibition Rate, ADP Aggregation, 2 hours after administration ([1]; ADP 3 μM): 26.4% | Aggregation Inhibition Rate, Collagen Aggregation, 2 hours after administration ([1]; collagen 3 μg/ml): 28.4% | IC50 (Rabbit Blood Platelet): 2.6 nM | blood pressure lowering rate ([2]; 0.03 μg/kg): 23.7%

O=C(O)/C=C/CCCC[C@H]1C(=O)C[C@@H](O)[C@@H]1C#C[C@@H](O)C1CCCCC1 [Compound 11, (2E)-16,17,18,19,20-Pentanor-15-cyclohexyl-2,3,13,14-tetradehydro-PGE1]
IC50 (Rabbit Blood Platelet): 6.3 nM

CCCC[C@H](C)C[C@H](O)C#C[C@H]1[C@H](O)CC(=O)[C@@H]1CCCC/C=C/C(=O)OC [Compound 1, (2E,17S)-17,20-Dimethyl-2,3,13,14-tetradehydro-PGE1 Methyl Ester]
Aggregation Inhibition Rate, ADP Aggregation, 2 hours after administration ([1]; ADP 3 μM): 9.8% | Aggregation Inhibition Rate, Collagen Aggregation, 2 hours after administration ([1]; collagen 3 μg/ml): 25.7% | blood pressure lowering rate ([2]; 0.03 μg/kg): 10.1%

CCCC[C@H](C)C[C@H](O)C#C[C@H]1[C@H](O)CC(=O)[C@@H]1CCCCC#CC(=O)O [Compound 12, (17S)-17,20-Dimethyl-2,2,3,3,13,14-hexadehydro-PGE1]
IC50 (Rabbit Blood Platelet): 5.1 nM

CCCC[C@H](C)C[C@H](O)C#C[C@H]1[C@H](O)CC(=O)[C@@H]1CCCCC#CC(=O)OC [Compound 4, (71S)-17,20-Dimethyl-2,2,3,3,13,14-hexadehydro-PGE1 Methyl Ester]
IC50 (Rabbit Blood Platelet): 3 nM

CCC#CCC(C)[C@H](O)C#C[C@H]1[C@H](O)CC(=O)[C@@H]1CCCC/C=C/C(=O)OC (stereo partly drawn) [Compound 2, (2E,16RS)-16,20-Dimethyl-2,3,13,14,18,18,19,19-octadehydro-PGE1 Methyl Ester]
IC50 (Rabbit Blood Platelet): 1.7 nM

CCCC[C@@H](C)C[C@H](O)C#C[C@H]1[C@H](O)CC(=O)[C@@H]1CCCCC#CC(=O)OC [Compound 8, (17R)-17,20-Dimethyl-2,2,3,3,13,14-hexadehydro-PGE1 Methyl Ester]
IC50 (Rabbit Blood Platelet): 0.74 nM

CCCC[C@@H](C)C[C@H](O)C#C[C@H]1[C@H](O)CC(=O)[C@@H]1CCCCC#CC(=O)O [Compound 16, (17R)-17,20-Dimethyl-2,2,3,3,13,14-hexadehydro-PGE1]
IC50 (Rabbit Blood Platelet): 0.37 nM
